Measured values reported in patent publication US4613355A, “Antibiotic having herbicidal activity” (Satoshi Omura, priority 1983, dated 1986).
Structures can show the parent of a compound that is named as a salt.

Legend:
Format in all cases: in vivo
[1] = tested on: Eichhornia crassipes; experiment: Activity against aquatic plants (Example 12); details: 0.1%, 1500 liter per hectare, 4 weeks after the treatment
Experimental: An aqueous solution containing 0.1% of Phosalacine (monosodium salt) and 0.1% of octylphenylpolyoxyethanol was applied to Eichhornia crassipes at a certain stage of growth, at a rate of 1500 liter per hectare as a foliage treatment. Damage to the plants was assessed visually 4 weeks after the treatment.

[2] = tested on: Killifishes (Medaka); experiment: Acute toxicity to fish, survival ratio (Example 13); details: killifish
Experimental: Killifishes (Japanese name, Medaka), were obtained from a market and maintained in a water bath at 25±2° C. for a week. Then the fishes (each group consisting of 10 fishes) were placed in water baths containing the test compounds at given concentrations as shown in the following Table. 24 and 48 hours after this, the survival ratio (%) of each group was visually counted to assess the acute toxity.

[3] = tested on: Digitaria adscendens; experiment: Foliage treatment of seedlings in pots (Example 7); details: 10 days after foliage treatment, 1000 liter per hectare
Experimental: Upland soil was put in a pot of 10 cm diameter and the seeds of Digitaria adscendens were sown in the soil at a depth of 1 cm from the surface. When the height of the seedlings was about 10 cm, aqueous solutions of the test compounds as shown in the following Table were uniformly sprayed on the plants at a rate of 1.2 ml per plant, equivalent to 1000 liter per hectare. 10 days after the foliage treatment, damage to plants was visually assessed on a scale of from 0 to 10, where 0 indicates no effect and 10 indicates complete kill.

## CC(C)C[C@H](NC(=O)[C@H](C)NC(=O)[C@@H](N)CCP(C)(=O)O)C(=O)O [Phosalacine (Na salt)]
[1]
  Damage to the plants, assessed visually: completely killed
[2]; 20 ppm, 24 hours
  Survival ratio (%): 100%
[2]; 20 ppm, 48 hours
  Survival ratio (%): 100%
[2]; 100 ppm, 24 hours
  Survival ratio (%): 100%
[2]; 100 ppm, 48 hours
  Survival ratio (%): 50%
[2]; 500 ppm, 24 hours
  Survival ratio (%): 0%
[2]; 500 ppm, 48 hours
  Survival ratio (%): 0%
[3]; Concentration 0.01 ppm
  damage to plants, scale 0 to 10: 3 (30)
[3]; Concentration 0.03 ppm
  damage to plants, scale 0 to 10: 10 (100)
[3]; Concentration 0.1 ppm
  damage to plants, scale 0 to 10: 10 (100)
